Experimental data taken from patent US6100237A, “Use of des-Aspartate-angiotensin I as an agent for the treatment and prevention of neointima formation, restenosis, and arteriosclerosis” (National University of Singapore, priority 1997, dated 2000).
No end group written: not given here.

Tested on: spontaneously hypertensive rat (SHR)
Assay: Chronic development of arteriosclerosis (abdominal aorta morphometry, tail cuff blood pressure), chronic oral administration, SHR
Format: in vivo, spontaneously hypertensive rats (SHR)
Settings: 0.9 mg/kg/day oral; weight taken at 12, 27 and 47 weeks old (data not shown)
Procedure: Five weeks old WKY and SHR were housed four to a cage. Four SHR and four WKY were orally administered 0.9 mg/kg/day of des-Aspartate-angiotensin I in 0.5 ml of saline daily for 47 weeks. Four SHR and another four WKY served as control animals and were administered 0.5 ml saline solution daily for 47 weeks. The weight of the animals were determined weekly till 12 weeks old, fortnightly till 27 weeks old and monthly till 47 weeks old. The dose of des-Aspartate-angiotensin I was adjusted to match the increase in weight as the animals grew. The dose of 0.9 mg/kg/day was calculated based on the maximum effective oral anti-cardiac hypertrophic dose (250 nmole per rat of average weight of 325 g) in the previous patent.
The blood pressure of the animals was determined by the tail cuff method on the 46th week of treatment. On the 47th week, animals were anaesthetized with chloral hydrate and a 3-cm section (measured from the left renal artery) of the abdominal aorta was removed and fixed in 4% paraformaldehyde and 1% glutaraldehyde. The aorta was processed for paraffin embedment. 10-μ thick sections were prepared and stained with toluidine blue. Fifty such sections, cut from the distal end of the artery, were used for quantitation. The area of the medial smooth muscle cells was quantitated morphometrically as described above. The area was converted to volume by multiplying by 10μ.

RVYIHPFHL [des-Aspartate-angiotensin I]
animal weight: no significant effect
